Measured values as given in PMC9005747, “Application of per-Residue Energy Decomposition to Design Peptide Inhibitors of PSD95 GK Domain” (Frontiers in Molecular Biosciences, 2022).
Like-named read-outs stand apart in the source and are kept apart here. Non-standard residues stand in square brackets, D forms with d. Primed or numbered codes have the meaning given here. No end group written: not given here. FITC′ = fluorescein isothiocyanate label on the N-terminus; pS = N[C@@H](COP(=O)(O)O)C(=O)O

Legend:
[1] = target: GK domain of PSD95; conditions: fluorescence polarization assay, cited from earlier work
Excerpt: page 6: 2. Supplementary Tables Supplementary Table 1.

[2] = target: GK domain of PSD95; conditions: isothermal titration calorimetry assay; ref Zhu et al., 2017; cited from earlier work
[3] = target: T1, His6-tagged PSD95 GK domain (a.a. 531-713) (UniProt P31016 531-713); test: fluorescence polarisation; direct titration: 10 nM FITC-SAPAP constant, His-GK 0 to 20 uM; 50 mM Tris, 100 mM NaCl, pH 7.5; 384-well plates, 1-h incubation; conditions: both partners purified
T1 construct: postsynaptic density protein 95 (PSD95, encoded by DLG4), guanylate kinase (GK) domain, a.a; 531-713; In the MST assay the protein was labelled on its His tag with the RED-Tris-NTA kit; The PDB entries are cited crystal structures of PSD95 GK with peptides; also called His-GK; His-PSD95 GK; source: E. coli BL21 (DE3), purified (Ni-NTA, size-exclusion chromatography); not shown: His6, N-terminal, …
T1 sequence (P31016 531-713): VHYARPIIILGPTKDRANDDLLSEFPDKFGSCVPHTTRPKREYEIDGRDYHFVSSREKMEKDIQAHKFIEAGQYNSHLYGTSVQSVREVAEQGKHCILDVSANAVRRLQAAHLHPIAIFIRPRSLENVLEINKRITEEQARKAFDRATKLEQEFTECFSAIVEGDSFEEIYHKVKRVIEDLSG

In the case of LSRVK[pS]LKKSLRQSF [p-LGL2], the Kd ([1]; ref Zhu et al., 2014) is listed as 10.2 ± 1.3 µM.

In the case of RIRREEYRRAINGQSMKL, the Kd [2] is given as 1.86 ± 0.31 µM.

For GRRH[pS]MENLELMKLTPEK [p-LGN], the Kd ([1]; ref Zhu et al., 2011) is listed as 0.53 ± 0.09 µM.

In the case of AELEGGPYSPLGKDYRKAEGEREEEG [MAP1A], the Kd ([1]; ref Xia et al., 2017) is listed as 12.1 ± 0.2 µM.

For AARRE[pS]YLKATQPSL [p-SAPAP], the Kd [2] is listed as 0.08 ± 0.01 µM.

For RIRREEYRRAINGQSFDLS, the Kd [2] is listed as 0.66 ± 0.13 µM.

B1: FITC-labeled SAPAP peptide FITC-AARRE(pS)YLKATQ (peptide)
peptide: {FITC′}-AARRE[pS]YLKATQ
notes: phosphorylated SAPAP peptide; SAPAP1 (DLGAP1, GKAP) is the member it names elsewhere; also called FITC-SAPAP; FITC-SAPAP probe; source: synthetic peptide, bought: China Peptides
With B1 the Kd [3] was 4.28 µM.
